One sequence from publication PMC12957798, “Adaptation of plateau frog peptide: From antimicrobial to angiogenic and proliferative functions” (Journal of Advanced Research, 2025) can be followed below.

Experiment [1] relates to Transgenic zebrafish Tg (Fli1a:eGFP). The experiment in a line: Zebrafish VRI-induced vascular insufficiency model (ISV). The format is in vivo. The following applies: VRI 300 ng/mL. As for the experimental part: Transgenic zebrafish Tg (Fli1a:eGFP) were cultured in culture tanks at 28 °C in a 14 h:10 h light/dark cycle for up to 6 months and subsequently made to produce zygotes by mating only, zebrafish larvae at 24 h post fertilisation (hpf) were induced for 3 h with a VEGFR tyrosine kinase inhibitor II (VRI) to produce a model of vascular insufficiency, after which they were washed to abort the effect of VRI was added to the same number of zebrafish of different groups with SC17-2 or equivalent amount of PBS, and images of zebrafish embryos were captured by Leica fluorescence microscopy, and the ISV index was calculated as follows: ISV index = intact blood vessels × 1 + defective blood vessels × 0.5.

The subject of experiment [2] is HaCaT cells. The experiment in a line: In vitro UVB damage repair (CCK-8). The format is cell-based, Human. As for the experimental part: HaCaT cells were inoculated in 24-well plates at 1 × 10^4 cells/well and incubated for 24 h to ensure uniformity and number of cells per well. Prior to UVB irradiation, cells were washed with phosphate buffer solution (PBS) and covered with 300 μL of PBS. The blank control group was wrapped through tinfoil to eliminate the effects caused by UVB irradiation and subsequently irradiated through […]. Immediately after irradiation, PBS was replaced with DMEM/F12 medium and 20 and 5 μg/mL of peptides SC17-2 were added, respectively, and incubated for 24 h. After that, 10 μL of CCK-8 was added to each well, and incubated for 2 h. The absorbance values of each well were measured at 450 nm.

Experiment [3] has as its system Acinetobacter baumannii (ATCC 19606), Candida auris (ATCC 10231), Pseudomonas aeruginosa (ATCC 27853) and Staphylococcus aureus (ATCC 6538). The experiment in a line: Disk diffusion (paper-disc agar-diffusion) antimicrobial test. The format is cell-based. As to conditions: SC17-2 10 mg/mL, 1 mL on filter paper, 24 h, 37 °C, b51 statement also rests on the MIC test. As for the experimental part: Disk diffusion and broth microdilution tests were selected as the standard method for screening the antimicrobial activity of SC17-2 [58]. The experiments were conducted utilising the disk diffusion test, whereby the following strains were examined: Acinetobacter baumannii (ATCC 19606), Candida auris (ATCC 10231), Pseudomonas aeruginosa (ATCC 27853) and Staphylococcus aureus (ATCC 6538). The concentration of bacterial suspension was then adjusted to 1 × 10^5 CFU/mL with saline, after which it was set aside. Separate plates containing bacterial agar were prepared: MH agar was utilised for the isolation of bacterial samples, while Sartorius agar was employed for the isolation of fungal samples. The suspensions containing the aforementioned microorganisms were then spread on the designated plates at a rate of 1:1000. A sterile filter paper was used to dispense 1 mL of SC17-2 (10 mg/mL), with equal amounts of PBS and Vancomycin/Colistin serving as controls. The plates were then subjected to the appropriate temperature (24 h at 37 °C) and subsequently observed under a camera to ascertain the results.

The test system of experiment [4] is HaCaT cells. The experiment in a line: In vitro scratch wound healing (migration) assay, HaCaT. The format is cell-based, Human. As to conditions: SC17-2 concentrations exceeding 10 μg/mL, 16 h.
Experiment [5] deals with wound tissue. The experiment in a line: H&E staining of mouse wound sections. The format is in vivo. As for the experimental part:
Sodium pentobarbital (2 %) was utilised for the anaesthetisation of mice by intraperitoneal injection (0.1 mL/20 g of mouse body weight). Subsequent to the induction of anaesthesia, the dorsal hair was removed using depilatory creams and electric scissors. Thereafter, circular full skin wounds of the same diameter were marked and created on the back of each mouse using circular stamps and red stencils. Mouse wounds were then covered and infiltrated daily with 20 μL of different concentrations of SC17-2 or 20 ng/mL of VEGF, and an equal volume of saline was used in the control group. Mice were anaesthetised every two days using isoflurane nebulisation followed by anaesthesia (concentration 2 %), after which they were placed under an optical camera to photograph the effect of wound area. After 13 days of treatment, mice were anaesthetised using isoflurane nebulisation followed by injection of an overdose of sodium pentobarbital to euthanise the mice (200 mg/kg). The wounds and their surrounding tissues were then excised for histopathological evaluation (Masson and H&E staining) and analysed by Enface immunofluorescence staining.

For experiment [6], the system named is HUVEC cells. The experiment in a line: In vitro wound healing (migration) assay, HUVEC. The format is cell-based, Human. As to conditions: SC17-2 concentrations exceeding 10 μg/mL, 16 h.
Experiment [7] is described as follows: Antioxidant activity (stated, no separate method). As to conditions: no separate method or value printed.
Experiment [8] concerns CD31. Put plainly: CD31 immunofluorescence of mouse wound sections (angiogenesis). The format is in vivo. The following applies: 13 days. As for the experimental part:
Use scissors to remove the tissue around the wound, put the tissue into 4 % paraformaldehyde solution, put the tissue in 4 °C for 24 h, use a tissue embedding machine for embedding, use a rotary slicer to section the tissue, put the section into environmentally friendly dewaxing solution to dewax for 3 times, 10 min each time, then use anhydrous ethanol to treat the section for 3 times, 5 min each time, rinse with distilled water and then repair the section by EDTA antigen repair solution. The slides were then incubated overnight at 4 °C with Anti-CD31 Mouse mAb as primary antibody and at room temperature for 50 min, protected from light, in PBS (pH 7.4), shaken and washed 3 times for 5 min each time on a decolourising shaker. Incubate at room temperature for 10 min. Images were captured using a scanner (Pannoramic MIDI), and graphics were processed using imageJ. The results were calculated as follows: relative staining area of blood vessels = An/average (Ac), An indicates the fluorescence staining area of CD31 obtained from the current sample by ImageJ statistics, […], and Ac is the fluorescence staining area of CD31 of all control samples.
ImageJ was used to quantify the percentage of stained area for Masson and the percentage of fluorescent area for CD31. All data were analysed by GraphPad Prism 9.5 software. Data were expressed as mean ± SEM. Comparisons between multiple groups were performed by using one-way analysis of variance (ANOVA) and Tukey's multiple comparison test. Differences between groups were commonly tested by ANOVA, P < 0.05 was considered statistically significant.

The mark [9] stands for this setting: increase in concentration of SC17-2.

Entries after “also recorded” stand apart in the source; their conditions may differ.

Consider “SFMPLSIPIMCKMLSKC [SC17-2, peptide of the pleskein family from the skin transcriptome of the frog Nanorana parkeri, made by solid-phase synthesis]”, for which the “ISVs restored, relative to healthy zebrafish” value in experiment [1] (SC17-2 20 μg/mL, 24 h, n = 6) was determined as 84.18%. The “number of ISV, dose dependence” value in experiment [1] (SC17-2 5, 10, 20 μg/mL, 24 h post-treatment) is reported as “significant increase in the number of ISV in a dose-dependent manner”. Also, the “UVB damage repair compared with non-irradiated group” value in experiment [2] (SC17-2 20 μg/mL vs group not irradiated) is “considerably less pronounced”. In addition, the “attenuation of UVB-induced damage” value in experiment [2] (SC17-2 20 μg/mL, 24 h after 5 J/cm UVB, CCK-8, vs saline after irradiation) is “capable of effectively removing the damage caused by UVB radiation”. Moreover, the “attenuation of cell injuries after UVB irradiation” value in experiment [2] (SC17-2 20 and 5 μg/mL, 24 h, CCK-8, n = 3) is on record as “could attenuate the cell injuries”. The “antimicrobial (bacteriostatic) activity” value in experiment [3] is given as “no bacteriostatic activity; also recorded: does not appear to have antimicrobial activity”. For the same sequence, the HaCaT migration result in experiment [4] is given as “notable enhancement”. Moreover, in experiment [5] (day 13, SC17-2 no less than 10 μg/mL), the “inflammatory cell infiltration in wound tissue” value is “significantly reduced the degree of inflammatory cell infiltration in the wound tissue”. In experiment [5] (setting [9]), the epithelial tissue thickness entry is reported as “notable thickening of epithelial tissue” and the granulation tissue formation entry is “enhanced granulation tissue formation”. Also, the HUVEC migration result in experiment [6] is recorded as “notable enhancement”. Besides, the antioxidant activity result in experiment [7] is “demonstrated antioxidant activity”. Further, in experiment [8] (CD31 images), the “number of blood vessels in wounds, dose dependence” value is “number of blood vessels in the wounds increased with the increase of SC17-2 concentration”. Besides, the “blood vessel formation (CD31 staining)” value in experiment [8] (SC17-2 5 μg/mL, n = 9) was “promoted blood vessel formation”. Also, the “proangiogenic effect compared with VEGF (CD31 staining)” value in experiment [8] (SC17-2 10 and 20 μg/mL, n = 9) was “more pronounced than that of VEGF”.
